The target of one experiment is recombinant human EGFR exon 19 deletion/C797S double mutant protein (Homo sapiens (Human), UniProt P00533, C797S/DEL746-750). Description: Biological Activity Assay C: biochemical assay against EGFR exon 19 deletion/C797S protein (EGFR d19/CS).
Chain of recombinant human EGFR exon 19 deletion/C797S double mutant protein (P00533 other isoform, or with tags, fused parts or gaps C797S/del 1-668/del 746-750 limits assumed): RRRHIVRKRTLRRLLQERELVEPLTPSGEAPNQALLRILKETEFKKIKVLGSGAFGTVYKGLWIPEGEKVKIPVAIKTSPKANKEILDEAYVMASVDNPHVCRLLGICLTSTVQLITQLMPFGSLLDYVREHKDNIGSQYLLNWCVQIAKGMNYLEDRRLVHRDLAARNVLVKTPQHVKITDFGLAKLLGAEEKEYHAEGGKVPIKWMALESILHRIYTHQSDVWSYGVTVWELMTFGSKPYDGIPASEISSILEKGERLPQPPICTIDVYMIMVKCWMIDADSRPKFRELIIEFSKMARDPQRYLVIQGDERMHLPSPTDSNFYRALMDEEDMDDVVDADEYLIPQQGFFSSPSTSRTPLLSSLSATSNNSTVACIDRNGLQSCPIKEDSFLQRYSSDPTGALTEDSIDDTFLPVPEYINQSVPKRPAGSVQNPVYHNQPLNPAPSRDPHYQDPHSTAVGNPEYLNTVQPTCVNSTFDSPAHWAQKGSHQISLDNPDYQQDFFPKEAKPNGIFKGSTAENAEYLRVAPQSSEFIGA
Conditions: not given
As to the method: In Row A of a 384-well polypropylene plate, was added 48 μL of DMSO. In wells A1 and A24, were added 12 μL of DMSO. […] To a well in Row A were added 12 μL of each 10 mM test compound stock (100% DMSO). […] The final intermediate dilution plate contained 4×16-point compound serial dilutions in assay buffer. The DMSO concentration was 10%. The intermediate compound dilution plate was transferred to the Bravo and the “5 uL dispense into ARP.pro” protocol was run. To the black low volume assay ready plates, were added 5 μL of 40 uM Phosphosens peptide sensor/4 mM ATP working solution to each well. […] To column 24, was added 10 μL of assay buffer. The final DMSO concentration was 2.5%. […] The plates were sealed with the TopSeal-A Plus plate seals. […] Set for 90 cycles with 120 second interval. […] The slope of each curve was constructed using Dotmatics in each well, and each IC50s was calculated using a 4-parameter fit model.
For `Fc1ccc(-c2nn([C@H]3CCOC[C@H]3F)cc2-c2ncnc3oc(-c4ccccc4)cc23)cc1` (single isomer, unassigned) [Example 210], the IC50 was 0.5 nM.
Regarding `Fc1ccc(-c2nn([C@@H]3CCOC[C@@H]3F)cc2-c2ncnc3oc(-c4ccccc4)cc23)cc1` (single isomer, unassigned) [Example 211], the IC50 turned out to be 0.35 nM.
For the compound `C[C@@H]1OCC[C@H]1n1cc(-c2ncnc3oc(-c4ccccc4)cc23)c(-c2ccc(F)cc2)n1` (single isomer, unassigned) [Example 213], the IC50 came out at 0.51 nM.
Consider `C[C@H]1OCC[C@@H]1n1cc(-c2ncnc3oc(-c4ccccc4)cc23)c(-c2ccc(F)cc2)n1` (single isomer, unassigned) [Example 214], for which the IC50 came out at 0.88 nM.
In the case of `CC1(C)C[C@H](Cn2cc(-c3ncnc4oc(-c5ccccc5)cc34)c(-c3ccc(F)cc3)n2)O1` (single isomer, unassigned) [Example 221], the IC50 stood at 0.33 nM.
Turning to `CC1(C)C[C@@H](Cn2cc(-c3ncnc4oc(-c5ccccc5)cc34)c(-c3ccc(F)cc3)n2)O1` (single isomer, unassigned) [Example 222], the IC50 turned out to be 0.59 nM.
In the case of `CC1(C)C[C@H](n2cc(-c3ncnc4oc(-c5ccccc5)cc34)c(-c3ccc(F)cc3)n2)CCO1` (single isomer, unassigned) [Example 225], the IC50 was determined as 4.88 nM.
On to `CC1(C)C[C@@H](n2cc(-c3ncnc4oc(-c5ccccc5)cc34)c(-c3ccc(F)cc3)n2)CCO1` (single isomer, unassigned) [Example 226], for which the IC50 turned out to be 1.86 nM.
On to `Fc1ccc(-c2nn([C@@H]3CCCCC3(F)F)cc2-c2ncnc3oc(-c4ccccc4)cc23)cc1` (single isomer, unassigned) [Example 230], for which the IC50 stood at 5.1 nM.
On the same count and under the same terms, under `Fc1ccc(-c2nn([C@H]3CCCCC3(F)F)cc2-c2ncnc3oc(-c4ccccc4)cc23)cc1` (single isomer, unassigned) [Example 233] stands 4.09 nM; under `CC1(C)C[C@@H](n2cc(-c3ncnc4oc(-c5ccccc5)cc34)c(-c3ccc(F)cc3)n2)CO1` (single isomer, unassigned) [Example 237], 0.74 nM.

For another experiment, the system named is Ba/F3_EGFR WT cells. Briefly: Biological Activity Assay D: BaF3 cell proliferation assay, EGFR wild-type (BaF3 WT). In kind it is cell-based. The following applies: Ba/F3 EGFR; Ba/F3_EGFR WT cells, ~72 hours, CellTiter-Glo; read-out: BaF3 WT IC50. On the procedure:
(§1) One frozen vial of cells should be thawed into one T25 flask in 10 mL media. Keep the flask upright in the incubator.
(§2) Method: One frozen vial of cells was thawed into one T25 flask in 10 mL media and the flask was kept upright in the incubator. Cells were split 1:10 every two to three days when cells reached confluency of around 1×10^6 cells/mL. Bravo protocol files were used with Greiner 384-well plates for all steps of compound preparation, cell plating and compound addition. […] 16 μL of DMSO were added (for compounds starting at 20 μM) or 28 μL DMSO (for compounds starting at 5 μM) to 96-well V-bottom polypropylene plate: wells 1A-1H (8 compounds/plate). […] 20 μL DMSO were added to the remainder of the wells (columns 2-12) in the 96-well V-bottom plate. A Bravo liquid handler was used to make 1:3 serial dilutions from columns 1 to 11 (12 remains as DMSO only) to prepare the DMSO dilution plate. 144 μL media were added to each well of a new 96-well V-bottom polypropylene plate to prepare the intermediate dilution plate. A Bravo or 96-head Integra liquid handler was used to add and mix 6 μL of test compound from the DMSO dilution plate to the intermediate dilution plate. (1:25 dilution). Cells were transferred from a flask into a 50 mL conical, vortex gently and the number of cells were counted, with a target cell number of about 1×10^6 cells per mL. The cells were diluted in culture medium in 50 mL conical or T25 flask, and the cell suspension was added to BRAVO reservoir and then use Bravo protocol to plate the appropriate number of cells shown below in 36 μl of medium per well as follows: Ba/F3-WT-EGFR 2000 cells per well of a 384 well plate; Ba/F3-LR/CS-EGFR 2000 cells per well of a 384 well plate; and Ba/F3-d19/CS-EGFR 1500 cells per well of a 384 well plate. An extra 10 mL of dead volume was utilized in each reservoir.
(§3) Using a Bravo liquid handler, 4 μl of test compound solution was added per well from the intermediate dilution plate to plated cells (1:10 dilution from the intermediate plate, final compound dilution 1:250 and final DMSO concentration per well is 0.4%). Using the 96 BRAVO Head, 25 μl were aspirated from the intermediate dilution plate and 4 μl each were dispensed into 4 wells (square pattern) in the 384-well plate. Any remaining test compound is dispensed into a secondary plate to prevent cross contamination of cells in the intermediate compound plate. After the compounds were added, the plate was shaken at 600 rpm gently for 60 see, and the plates were incubated in a tissue culture incubator, 37° C., 5% CO2, for ˜ 72 hours. After incubation, CTG 2.0 reagent was allowed to equilibrate to room temperature (˜3 hours) and cells to reach room temperature (˜10-15 minutes) and reagent was added to cells (40 μL/well) using a Bravo liquid handler. The plates were shaken to allow proper mixing (˜5 min) and let settle for 10 minutes and were read on Tecan plate reader using the appropriate luminescence method. Data from plate reader was transferred to an excel file and entered directly into Dotmatics using the protocols under EGFR Project/Cell Proliferation/named: “BaF3_EGFRwt_CP”, “BaF3_EGFR_d19/CS_CP”, “BaF3_EGFR_LR/CS_CP”. Curves were fit with a 4-parameter model and IC50s calculated by the Dotmatics software. DMSO wells were averaged to define the high control (100% growth). The average of the highest concentration of the positive control compound (afatinib) was used to define the 0% growth and used to lock the bottom of the curves. The tops of the curves were not fixed.
With `Fc1ccc(-c2nn([C@H]3CCOC[C@H]3F)cc2-c2ncnc3oc(-c4ccccc4)cc23)cc1` (single isomer, unassigned) [Example 210], the IC50 came out at 1690 nM.
The same measure, in the same setting: the figure for `Fc1ccc(-c2nn([C@@H]3CCOC[C@@H]3F)cc2-c2ncnc3oc(-c4ccccc4)cc23)cc1` (single isomer, unassigned) [Example 211] is 886 nM; for `C[C@@H]1OCC[C@H]1n1cc(-c2ncnc3oc(-c4ccccc4)cc23)c(-c2ccc(F)cc2)n1` (single isomer, unassigned) [Example 213] it is 2610 nM; for `C[C@H]1OCC[C@@H]1n1cc(-c2ncnc3oc(-c4ccccc4)cc23)c(-c2ccc(F)cc2)n1` (single isomer, unassigned) [Example 214] it is 2510 nM.
With `CC1(C)C[C@H](Cn2cc(-c3ncnc4oc(-c5ccccc5)cc34)c(-c3ccc(F)cc3)n2)O1` (single isomer, unassigned) [Example 221], the IC50 was determined as 710 nM.
On the same count and under the same terms, the figure for `CC1(C)C[C@@H](Cn2cc(-c3ncnc4oc(-c5ccccc5)cc34)c(-c3ccc(F)cc3)n2)O1` (single isomer, unassigned) [Example 222] is 1250 nM.
Turning to `CC1(C)C[C@H](n2cc(-c3ncnc4oc(-c5ccccc5)cc34)c(-c3ccc(F)cc3)n2)CCO1` (single isomer, unassigned) [Example 225], the IC50 was 18900 nM.
As to `CC1(C)C[C@@H](n2cc(-c3ncnc4oc(-c5ccccc5)cc34)c(-c3ccc(F)cc3)n2)CCO1` (single isomer, unassigned) [Example 226], the IC50 was 10200 nM.
Regarding `Fc1ccc(-c2nn([C@@H]3CCCCC3(F)F)cc2-c2ncnc3oc(-c4ccccc4)cc23)cc1` (single isomer, unassigned) [Example 230], the IC50 came to 2370 nM.
Same read-out and setting: under `Fc1ccc(-c2nn([C@H]3CCCCC3(F)F)cc2-c2ncnc3oc(-c4ccccc4)cc23)cc1` (single isomer, unassigned) [Example 233] stands 6040 nM; under `CC1(C)C[C@@H](n2cc(-c3ncnc4oc(-c5ccccc5)cc34)c(-c3ccc(F)cc3)n2)CO1` (single isomer, unassigned) [Example 237], 2500 nM.

In the next experiment the test system is BaF3_EGFR LR/CS cells. Description: Biological Activity Assay D: BaF3 cell proliferation assay, EGFR L858R/C797S mutant (BaF3 LR/CS). To be noted: Ba/F3 EGFR; BaF3_EGFR LR/CS cells, ~72 hours, CellTiter-Glo; read-out: BaF3 LR/CS IC50. In kind it is cell-based. As to the method:
as §1, §2, §3
A general note: ATP-based viability assays read luminescence as a measure of living cells.
Take `Fc1ccc(-c2nn([C@H]3CCOC[C@H]3F)cc2-c2ncnc3oc(-c4ccccc4)cc23)cc1` (single isomer, unassigned) [Example 210]: the IC50 was 61.1 nM.
In the case of `Fc1ccc(-c2nn([C@@H]3CCOC[C@@H]3F)cc2-c2ncnc3oc(-c4ccccc4)cc23)cc1` (single isomer, unassigned) [Example 211], the IC50 was found to be 18.3 nM.
Turning to `C[C@@H]1OCC[C@H]1n1cc(-c2ncnc3oc(-c4ccccc4)cc23)c(-c2ccc(F)cc2)n1` (single isomer, unassigned) [Example 213], the IC50 was found to be 80.9 nM.
As to `C[C@H]1OCC[C@@H]1n1cc(-c2ncnc3oc(-c4ccccc4)cc23)c(-c2ccc(F)cc2)n1` (single isomer, unassigned) [Example 214], the IC50 came to 136 nM.
As to `CC1(C)C[C@H](Cn2cc(-c3ncnc4oc(-c5ccccc5)cc34)c(-c3ccc(F)cc3)n2)O1` (single isomer, unassigned) [Example 221], the IC50 was determined as 20.7 nM.
Turning to `CC1(C)C[C@@H](Cn2cc(-c3ncnc4oc(-c5ccccc5)cc34)c(-c3ccc(F)cc3)n2)O1` (single isomer, unassigned) [Example 222], the IC50 came out at 76.8 nM.
Same read-out and setting: the figure for `CC1(C)C[C@H](n2cc(-c3ncnc4oc(-c5ccccc5)cc34)c(-c3ccc(F)cc3)n2)CCO1` (single isomer, unassigned) [Example 225] is 502 nM; for `CC1(C)C[C@@H](n2cc(-c3ncnc4oc(-c5ccccc5)cc34)c(-c3ccc(F)cc3)n2)CCO1` (single isomer, unassigned) [Example 226] it is 236 nM; for `Fc1ccc(-c2nn([C@@H]3CCCCC3(F)F)cc2-c2ncnc3oc(-c4ccccc4)cc23)cc1` (single isomer, unassigned) [Example 230] it is 88.5 nM.
Turning to `Fc1ccc(-c2nn([C@H]3CCCCC3(F)F)cc2-c2ncnc3oc(-c4ccccc4)cc23)cc1` (single isomer, unassigned) [Example 233], the IC50 was found to be 228 nM.
Still for that read-out and setting: the figure for `CC1(C)C[C@@H](n2cc(-c3ncnc4oc(-c5ccccc5)cc34)c(-c3ccc(F)cc3)n2)CO1` (single isomer, unassigned) [Example 237] is 35 nM.

For the next experiment, the system named is BaF3_EGFR d19/CS cells. Briefly: Biological Activity Assay D: BaF3 cell proliferation assay, EGFR exon 19 deletion/C797S (BaF3 d19/CS). In kind it is cell-based. To be noted: Ba/F3 EGFR; BaF3_EGFR d19/CS cells, ~72 hours, CellTiter-Glo; read-out: BaF3 d19/CS IC50. On the procedure: as §1, §2, §3
For the compound `Fc1ccc(-c2nn([C@H]3CCOC[C@H]3F)cc2-c2ncnc3oc(-c4ccccc4)cc23)cc1` (single isomer, unassigned) [Example 210], the IC50 was found to be 92.2 nM.
The same measure, in the same setting: the figure for `Fc1ccc(-c2nn([C@@H]3CCOC[C@@H]3F)cc2-c2ncnc3oc(-c4ccccc4)cc23)cc1` (single isomer, unassigned) [Example 211] is 20.1 nM; for `C[C@@H]1OCC[C@H]1n1cc(-c2ncnc3oc(-c4ccccc4)cc23)c(-c2ccc(F)cc2)n1` (single isomer, unassigned) [Example 213] it is 168 nM; for `C[C@H]1OCC[C@@H]1n1cc(-c2ncnc3oc(-c4ccccc4)cc23)c(-c2ccc(F)cc2)n1` (single isomer, unassigned) [Example 214] it is 303 nM.
On the same count and under the same terms, under `CC1(C)C[C@H](Cn2cc(-c3ncnc4oc(-c5ccccc5)cc34)c(-c3ccc(F)cc3)n2)O1` (single isomer, unassigned) [Example 221] stands 51.8 nM.
Turning to `CC1(C)C[C@@H](Cn2cc(-c3ncnc4oc(-c5ccccc5)cc34)c(-c3ccc(F)cc3)n2)O1` (single isomer, unassigned) [Example 222], the IC50 is 182 nM.
Turning to `CC1(C)C[C@H](n2cc(-c3ncnc4oc(-c5ccccc5)cc34)c(-c3ccc(F)cc3)n2)CCO1` (single isomer, unassigned) [Example 225], the IC50 came out at 886 nM.
On to `CC1(C)C[C@@H](n2cc(-c3ncnc4oc(-c5ccccc5)cc34)c(-c3ccc(F)cc3)n2)CCO1` (single isomer, unassigned) [Example 226], for which the IC50 is 413 nM.
Regarding `Fc1ccc(-c2nn([C@@H]3CCCCC3(F)F)cc2-c2ncnc3oc(-c4ccccc4)cc23)cc1` (single isomer, unassigned) [Example 230], the IC50 stood at 287 nM.
The same measure, in the same setting: the figure for `Fc1ccc(-c2nn([C@H]3CCCCC3(F)F)cc2-c2ncnc3oc(-c4ccccc4)cc23)cc1` (single isomer, unassigned) [Example 233] is 414 nM; for `CC1(C)C[C@@H](n2cc(-c3ncnc4oc(-c5ccccc5)cc34)c(-c3ccc(F)cc3)n2)CO1` (single isomer, unassigned) [Example 237] it is 73.9 nM.

Source of the values: patent publication US20250034159A1, “INHIBITORS OF EPIDERMAL GROWTH FACTOR RECEPTOR” (ORIC Pharmaceuticals, Inc., priority 2021, published 2025).
